In patent publication US10519140B2, “Indolin-2-one derivatives” (Hoffmann-La Roche Inc., priority 2015, dated 2019):

target: T1, mouse ENT-1 transporter (Mus musculus, UniProt Q9JIM1); assay: Adenosine transport activity (ENT1, [3H]-adenosine uptake inhibition); format: cell-based; details: stable cells expressing mouse ENT-1; [2,8-3H]-adenosine 6 nM, 20 min
T1 construct: expressed in transfected cells
T1 sequence (Q9JIM1 1-460): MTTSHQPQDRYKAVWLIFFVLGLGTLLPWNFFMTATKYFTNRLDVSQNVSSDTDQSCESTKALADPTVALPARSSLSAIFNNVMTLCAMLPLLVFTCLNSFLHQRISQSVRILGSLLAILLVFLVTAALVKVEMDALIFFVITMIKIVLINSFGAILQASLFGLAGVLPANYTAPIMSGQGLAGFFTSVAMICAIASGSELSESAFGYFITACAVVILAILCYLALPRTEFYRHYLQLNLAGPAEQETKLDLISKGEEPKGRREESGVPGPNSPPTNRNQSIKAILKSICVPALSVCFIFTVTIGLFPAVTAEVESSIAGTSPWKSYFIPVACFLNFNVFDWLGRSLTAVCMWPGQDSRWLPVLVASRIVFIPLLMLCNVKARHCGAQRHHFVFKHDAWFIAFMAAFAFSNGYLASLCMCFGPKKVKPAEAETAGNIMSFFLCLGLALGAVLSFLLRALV
Procedure: To measure adenosine transport activity of ENT-1 mammalian cells, stable cells expressing the mouse ENT-1 transporter were plated on day 1 in 96-well culture plates at the density of 60,000 cells/well, in complete DMEM/F12 medium supplemented with glutamax, 10% FBS and 10 μg/ml puromycin. On day 2, the medium was aspirated and the cells were washed twice with uptake buffer (10 mM Hepes-Tris, pH 7.4 containing 150 mM NaCl, 1 mM CaCl2, 2.5 mM KCl, 2.5 mM MgSO4, 10 mM D-glucose) (UB). For inhibition experiments, cells were then incubated at RT with various concentrations of compounds with 1% DMSO final. Non-specific uptake was defined in the presence of 10 μM S-(4-Nitrobenzyl)-6-thioinosine (NBTI, Sigma Cat #N2255). A solution containing [2,8-^3H]-adenosine 6 nM (40 Ci/mmol, American Radiolabeled chemicals Inc, Cat #ART 0287A) was then immediately added to the wells. The plates were then incubated for 20 min with gentle shaking and the reaction was stopped by aspiration of the mixture and washing (three times) with ice-cold UB. The cells were lysed by the addition of scintillation liquid, shaken 3 hours and the radioactivity in the cells was estimated using a microplates scintillation counter (TopCount NXT, Packard).

IC50 | SMILES
24.8 nM | Cc1ncc(-c2ccc3c(c2)N(c2cncc(N4C(=O)O[C@H]5CC[C@H]54)n2)C(=O)C3(C)C)cn1 (racemic) [Example 55, rac-(1S,5R)-4-(6-(3,3-Dimethyl-6-(2-methylpyrimidin-5-yl)-2-oxoindolin-1-yl)pyrazin-2-yl)-2-oxa-4-azabicyclo[3.2.0]heptan-3-one]
163 nM | Cc1ncc(-c2ccc3c(c2)N(c2cncc(N)n2)C(=O)C3(C)C)cn1 [Example 2, 1-(6-Aminopyrazin-2-yl)-3,3-dimethyl-6-(2-methylpyrimidin-5-yl)indolin-2-one]
253 nM | Cc1ncc(-c2ccc3c(c2)N(c2cncc(N4CCCC4)n2)C(=O)C3(C)C)cn1 [Example 4, 3,3-Dimethyl-6-(2-methylpyrimidin-5-yl)-1-(6-(pyrrolidin-1-yl)pyrazin-2-yl)indolin-2-one]
48 nM | CC(=O)Nc1cncc(N2C(=O)C(C)(C)c3ccc(-c4cnc(C)nc4)cc32)n1 [Example 5, N-(6-(3,3-Dimethyl-6-(2-methylpyrimidin-5-yl)-2-oxoindolin-1-yl)pyrazin-2-yl)acetamide]
32.4 nM | Cc1ncc(-c2ccc3c(c2)N(c2cncc(N4CCC(F)(F)CC4)n2)C(=O)C3(C)C)cn1 [Example 6, 1-(6-(4,4-Difluoropiperidin-1-yl)pyrazin-2-yl)-3,3-dimethyl-6-(2-methylpyrimidin-5-yl)indolin-2-one]
39.6 nM | Cc1ncc(-c2ccc3c(c2)N(c2cncc(NC4CC4)n2)C(=O)C3(C)C)cn1 [Example 7, 1-(6-(Cyclopropylamino)pyrazin-2-yl)-3,3-dimethyl-6-(2-methylpyrimidin-5-yl)indolin-2-one]
87.6 nM | COCCNc1cncc(N2C(=O)C(C)(C)c3ccc(-c4cnc(C)nc4)cc32)n1 [Example 8, 1-[6-(2-Methoxyethylamino)pyrazin-2-yl]-3,3-dimethyl-6-(2-methylpyrimidin-5-yl)indol-2-one]
21.8 nM | Cc1ncc(-c2ccc3c(c2)N(c2cncc(N4CCC(O)CC4)n2)C(=O)C3(C)C)cn1 [Example 9, 1-(6-(4-Hydroxypiperidin-1-yl)pyrazin-2-yl)-3,3-dimethyl-6-(2-methylpyrimidin-5-yl)indolin-2-one]
29.6 nM | Cc1ncc(-c2ccc3c(c2)N(c2cncc(N4CCS(=O)(=O)CC4)n2)C(=O)C3(C)C)cn1 [Example 10, 1-(6-(1,1-Dioxidothiomorpholino)pyrazin-2-yl)-3,3-dimethyl-6-(2-methylpyrimidin-5-yl)indolin-2-one]
33.8 nM | Cc1ncc(-c2ccc3c(c2)N(c2cncc(N4CCC(C)(O)CC4)n2)C(=O)C3(C)C)cn1 [Example 11, 1-(6-(4-Hydroxy-4-methylpiperidin-1-yl)pyrazin-2-yl)-3,3-dimethyl-6-(2-methylpyrimidin-5-yl)indolin-2-one]
54.5 nM | COCCN(C)c1cncc(N2C(=O)C(C)(C)c3ccc(-c4cnc(C)nc4)cc32)n1 [Example 12, 1-(6-((2-Methoxyethyl)(methyl)amino)pyrazin-2-yl)-3,3-dimethyl-6-(2-methylpyrimidin-5-yl)indolin-2-one]
137 nM | Cc1ncc(-c2ccc3c(c2)N(c2cncc(N4[C@@H]5COC[C@H]4C5)n2)C(=O)C3(C)C)cn1 [Example 13, 1-(6-((1R,5S)-3-Oxa-6-azabicyclo[3.1.1]heptan-6-yl)pyrazin-2-yl)-3,3-dimethyl-6-(2-methylpyrimidin-5-yl)indolin-2-one]
110 nM | Cc1ncc(-c2ccc3c(c2)N(c2cncc(N4CCC45COC5)n2)C(=O)C3(C)C)cn1 [Example 14, 1-(6-(6-Oxa-1-azaspiro[3.3]heptan-1-yl)pyrazin-2-yl)-3,3-dimethyl-6-(2-methylpyrimidin-5-yl)indolin-2-one]
88.7 nM | Cc1ncc(-c2ccc3c(c2)N(c2cncc(N4C[C@H]5C[C@@H](C4)O5)n2)C(=O)C3(C)C)cn1 [Example 16, 1-(6-((1R,5S)-6-Oxa-3-azabicyclo[3.1.1]heptan-3-yl)pyrazin-2-yl)-3,3-dimethyl-6-(2-methylpyrimidin-5-yl)indolin-2-one]
244 nM | Cc1ncc(-c2ccc3c(c2)N(c2cncc(NC4COC4)n2)C(=O)C3(C)C)cn1 [Example 17, 3,3-Dimethyl-6-(2-methylpyrimidin-5-yl)-1-(6-(oxetan-3-ylamino)pyrazin-2-yl)indolin-2-one]
110 nM | COCCNc1nc(N2C(=O)C(C)(C)c3ccc(-c4cnc(C)nc4)cc32)cnc1C [Example 19, 1-(6-((2-Methoxyethyl)amino)-5-methylpyrazin-2-yl)-3,3-dimethyl-6-(2-methylpyrimidin-5-yl)indolin-2-one]

IC50 | SMILES
238 nM | Cc1ncc(-c2ccc3c(c2)N(c2cncc(N4C(=O)OC[C@H]4C(C)C)n2)C(=O)C3(C)C)cn1 [Example 21, (R)-3-(6-(3,3-Dimethyl-6-(2-methylpyrimidin-5-yl)-2-oxoindolin-1-yl)pyrazin-2-yl)-4-isopropyloxazolidin-2-one]
387 nM | Cc1ncc(-c2ccc3c(c2)N(c2cncc(N4C(=O)OC[C@@H]4C(C)C)n2)C(=O)C3(C)C)cn1 [Example 22, (S)-3-(6-(3,3-Dimethyl-6-(2-methylpyrimidin-5-yl)-2-oxoindolin-1-yl)pyrazin-2-yl)-4-isopropyloxazolidin-2-one]
52.2 nM | Cc1ncc(-c2ccc3c(c2)N(c2ccnc(N4CCOCC4)n2)C(=O)C3(C)C)cn1 [Example 23, 3,3-Dimethyl-6-(2-methylpyrimidin-5-yl)-1-(2-morpholinopyrimidin-4-yl)indolin-2-one]
321 nM | Cc1ncc(-c2ccc3c(c2)N(c2nccc(N4CCOCC4)n2)C(=O)C3(C)C)cn1 [Example 24, 3,3-Dimethyl-6-(2-methylpyrimidin-5-yl)-1-(4-morpholinopyrimidin-2-yl)indolin-2-one]
466 nM | Cc1ncc(-c2ccc3c(c2)N(c2cncc(N)c2)C(=O)C3(C)C)cn1 [Example 25, 1-(5-Aminopyridin-3-yl)-3,3-dimethyl-6-(2-methylpyrimidin-5-yl)indolin-2-one]
17.6 nM | Cc1ncc(-c2ccc3c(c2)N(c2cncc(N4CCOCC4)c2)C(=O)C3(C)C)cn1 [Example 26, 3,3-Dimethyl-6-(2-methylpyrimidin-5-yl)-1-(5-morpholinopyridin-3-yl)indolin-2-one]
57.5 nM | Cc1ncc(-c2ccc3c(c2)N(c2cccc(N4CCOCC4)n2)C(=O)C3(C)C)cn1 [Example 27, 3,3-Dimethyl-6-(2-methylpyrimidin-5-yl)-1-(6-morpholinopyridin-2-yl)indolin-2-one]
5 nM | Cc1ncc(-c2ccc3c(c2)N(c2cccc(N4CCOC4=O)n2)C(=O)C3(C)C)cn1 [Example 28, 3-(6-(3,3-Dimethyl-6-(2-methylpyrimidin-5-yl)-2-oxoindolin-1-yl)pyridin-2-yl)oxazolidin-2-one]
126 nM | Cc1ncc(-c2ccc3c(c2)N(c2ccc(C)c(N)n2)C(=O)C3(C)C)cn1 [Example 29, 1-(6-Amino-5-methylpyridin-2-yl)-3,3-dimethyl-6-(2-methylpyrimidin-5-yl)indolin-2-one]
346 nM | CC(=O)Nc1nc(N2C(=O)C(C)(C)c3ccc(-c4cnc(C)nc4)cc32)ccc1C [Example 30, N-(6-(3,3-Dimethyl-6-(2-methylpyrimidin-5-yl)-2-oxoindolin-1-yl)-3-methylpyridin-2-yl)acetamide]
40.1 nM | Cc1ncc(-c2ccc3c(c2)N(c2ccc(C)c(N4CCOCC4)n2)C(=O)C3(C)C)cn1 [Example 31, 3,3-Dimethyl-1-(5-methyl-6-morpholinopyridin-2-yl)-6-(2-methylpyrimidin-5-yl)indolin-2-one]
32.4 nM | Cc1ncc(-c2ccc3c(c2)N(c2ccc(C)c(N4CCOC4=O)n2)C(=O)C3(C)C)cn1 [Example 32, 3-(6-(3,3-Dimethyl-6-(2-methylpyrimidin-5-yl)-2-oxoindolin-1-yl)-3-methylpyridin-2-yl)oxazolidin-2-one]
742 nM | Cc1ncc(-c2ccc3c(c2)N(c2cccc4[nH]ccc24)C(=O)C3(C)C)cn1 [Example 33, 1-(1H-Indol-4-yl)-3,3-dimethyl-6-(2-methylpyrimidin-5-yl)indolin-2-one]
838 nM | Cc1ncc(-c2ccc3c(c2)N(c2cncc4[nH]ccc24)C(=O)C3(C)C)cn1 [Example 34, 3,3-Dimethyl-6-(2-methylpyrimidin-5-yl)-1-(1H-pyrrolo[2,3-c]pyridin-4-yl)indolin-2-one]
496 nM | Cc1ncc(-c2ccc3c(c2)N(c2cnc4c(n2)[nH]c(=O)n4C)C(=O)C3(C)C)cn1 [Example 35, 5-(3,3-Dimethyl-6-(2-methylpyrimidin-5-yl)-2-oxoindolin-1-yl)-1-methyl-1H-imidazo[4,5-b]pyrazin-2(3H)-one]
